Laboratory results as given in PMC2974439 (Biochemistry, 2010).
Blank lines part the entries; values can stand above or below the molecule they belong to.

How the values were obtained:
EntF+YbdZ = EntF+YbdZ (Escherichia coli, UniProt P11454); assay: substrate activation assay; format: biochemical; conditions: co-purified with YbdZ; two values for two different preparations
EntF (EntF-H6) = EntF (EntF-H6) (Escherichia coli, UniProt P11454); assay: substrate activation assay; format: biochemical; conditions: without YbdZ; two values for two different preparations
Sequence of EntF (EntF-H6) (P11454 whole entry): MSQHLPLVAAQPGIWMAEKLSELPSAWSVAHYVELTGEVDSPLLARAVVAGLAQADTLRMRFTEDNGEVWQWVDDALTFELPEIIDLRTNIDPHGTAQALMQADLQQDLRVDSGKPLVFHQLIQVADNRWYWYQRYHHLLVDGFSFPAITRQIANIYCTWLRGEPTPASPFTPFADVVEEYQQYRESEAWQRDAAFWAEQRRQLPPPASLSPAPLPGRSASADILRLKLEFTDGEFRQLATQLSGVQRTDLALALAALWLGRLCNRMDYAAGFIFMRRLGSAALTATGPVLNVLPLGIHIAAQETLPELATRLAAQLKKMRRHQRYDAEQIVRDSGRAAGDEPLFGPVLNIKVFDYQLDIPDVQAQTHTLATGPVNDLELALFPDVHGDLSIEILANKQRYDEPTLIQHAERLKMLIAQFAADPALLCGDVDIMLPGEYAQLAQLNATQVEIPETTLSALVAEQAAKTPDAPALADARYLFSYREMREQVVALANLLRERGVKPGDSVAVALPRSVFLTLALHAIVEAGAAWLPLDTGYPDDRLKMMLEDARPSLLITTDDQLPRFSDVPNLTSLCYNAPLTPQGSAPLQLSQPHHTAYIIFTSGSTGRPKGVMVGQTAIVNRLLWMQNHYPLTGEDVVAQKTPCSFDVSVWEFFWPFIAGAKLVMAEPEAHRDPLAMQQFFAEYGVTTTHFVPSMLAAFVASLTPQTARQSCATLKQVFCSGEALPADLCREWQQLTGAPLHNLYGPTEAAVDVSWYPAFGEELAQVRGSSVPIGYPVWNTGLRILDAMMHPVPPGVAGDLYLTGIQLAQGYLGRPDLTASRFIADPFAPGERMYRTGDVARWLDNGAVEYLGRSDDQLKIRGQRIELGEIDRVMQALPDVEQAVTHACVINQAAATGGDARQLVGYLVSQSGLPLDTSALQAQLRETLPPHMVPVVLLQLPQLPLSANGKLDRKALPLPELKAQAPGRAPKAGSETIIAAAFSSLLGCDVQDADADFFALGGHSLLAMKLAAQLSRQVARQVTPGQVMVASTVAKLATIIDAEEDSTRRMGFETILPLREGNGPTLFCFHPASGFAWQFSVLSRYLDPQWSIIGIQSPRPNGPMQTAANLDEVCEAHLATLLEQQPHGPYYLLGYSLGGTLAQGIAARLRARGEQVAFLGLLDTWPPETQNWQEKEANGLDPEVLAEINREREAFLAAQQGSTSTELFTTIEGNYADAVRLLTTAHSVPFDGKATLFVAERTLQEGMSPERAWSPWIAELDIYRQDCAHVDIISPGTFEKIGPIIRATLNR

H6-CmnO = assay: co-purification after co-expression
[1] = substrate: O=C(O)c1cccc(O)c1O; assay: substrate activation assay; format: biochemical, Escherichia coli; conditions: without YbdZ

Sequence of EntF+YbdZ (P11454 whole entry): as above
Sequence of EntF+YbdZ (P18393 2-72 partner limits assumed): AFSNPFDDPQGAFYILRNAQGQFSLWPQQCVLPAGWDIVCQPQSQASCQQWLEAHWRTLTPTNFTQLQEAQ

Molecule: N[C@@H](CO)C(=O)O [L-Ser]
- Km ^a (EntF+YbdZ): 655.9 ± 53.0, 240.1 ± 46.7 μM
- Km ^a (EntF (EntF-H6)): 7162.1 ± 413.5, 4589.5 ± 313.0 μM

- stoichiometry N (mol CmnN per mol H6-CmnO) (H6-CmnO): 0.42
Molecule: CmnN (natural protein)

B1: EntE (H6-EntE) (Escherichia coli K-12) (protein)
chain: MSIPFTRWPEEFARRYREKGYWQDLPLTDILTRHAASDSIAVIDGERQLSYRELNQAADNLACSLRRQGIKPGETALVQLGNVAELYITFFALLKLGVAPVLALFSHQRSELNAYASQIEPALLIADRQHALFSGDDFLNTFVTEHSSIRVVQLLNDSGEHNLQDAINHPAEDFTATPSPADEVAYFQLSGGTTGTPKLIPRTHNDYYYSVRRSVEICQFTQQTRYLCAIPAAHNYAMSSPGSLGVFLAGGTVVLAADPSATLCFPLIEKHQVNVTALVPPAVSLWLQALIEGESRAQLASLKLLQVGGARLSATLAARIPAEIGCQLQQVFGMAEGLVNYTRLDDSAEKIIHTQGYPMCPDDEVWVADAEGNPLPQGEVGRLMTRGPYTFRGYYKSPQHNASAFDANGFYCSGDLISIDPEGYITVQGREKDQINRGGEKIAAEEIENLLLRHPAVIYAALVSMEDELMGEKSCAYLVVKEPLRAVQVRRFLREQGIAEFKLPDRVECVDSLPLTAVGKVDKKQLRQWLASRASA
- Km [1]: 2.9 ± 0.4 µM
